# Measurements: US11390644B2, “Raman tag” (Purdue Research Foundation, priority 2014, dated 2022)
# “Also recorded” adds a separate entry of the source.
# What was measured:
# [1] = MTT cell-viability assay of tagged cholesterols; type: cell-based, Chinese hamster; conditions: Chinese hamster; CHO cells, 48 h incubation; read-out: IC50 (cytotoxicity, MTT cell viability)
# Description: (§1) Referring now to FIG. 3, the cytotoxicity of cholesterol mimics was evaluated by MTT cell-viability assays after treating CHO cells with cholesterol mimic. Various concentrations of cholesterol mimic were added to the culture media and the cells were incubated for 48 hours before the assays were conducted. […] Adding a phenyl group reduced the cytotoxicity. To directly visualize the toxic effect, we stained the cells with propidium iodide for late apoptosis and necrosis.
# (§2) To evaluate the cytotoxicity of tagged cholesterols, we performed MTT cell-viability assays after treating CHO cells with tagged cholesterol. […] To directly visualize the toxic effect, we stained the cells with propidium iodide for late apoptosis and necrosis. […] Based on the signal level and the severity of toxicity, we conclude that PhDY-Chol is the most suitable cholesterol probe for live cell imaging, and we used PhDY-Chol in subsequent experiments.
# (§3) CHO cells were grown in 96-well plates with density of 4000 cells per well. The next day, the cells were treated with each cholesterol probe at the indicated concentrations for 48 h. Cell-viability was measured with the MTT colorimetric assay (Sigma).
# [2] = test system: CHO cells; assay: MTT cell-viability assay of tagged cholesterols; type: cell-based, Chinese hamster
# Description: as §1, §2, §3
# [3] = test system: CHO cells; assay: Propidium iodide staining for late apoptosis and necrosis; type: cell-based, Chinese hamster; conditions: 30 μM, 24 h
# Description: as §1
# as §2, with “cholesterol. Various concentrations of tagged cholesterol were added to the culture media and the cells were incubated for 48 h before the assays were conducted.” for “cholesterol.”
# Propidium iodide was used to stain late apoptotic or necrotic cells. CHO cells were incubated with 30 μM of tagged cholesterol molecules for 24 h. The propidium iodide staining was performed following protocols provided by the manufacturer (Life Technologies).
# [4] = Photostability under continuous SRS / TPEF image acquisition; type: physicochemical; conditions: 50 mM solution, acquired continuously for 150 s, one acquisition every 30 s
# Description: FIG. 14. The photostability of PhDY-Chol and the photo-bleaching of BODIPY-Chol. The SRS images of 50 mM PhDY-Chol solution and TPEF images of 50 mM BODIPY-Chol solution were acquired continuously for 150 s (one acquisition every 30 s).
# [5] = biological target: T1, ACAT-1 (Cricetulus griseus, UniProt Q60457); assay: ACAT-1 inhibition (avasimibe) blocking probe storage into lipid droplets; type: cell-based, Chinese hamster; conditions: CHO cells
# T1 construct: endogenous in cells; host or cells: CHO-K1 cells
# T1 sequence (Q60457 1-546): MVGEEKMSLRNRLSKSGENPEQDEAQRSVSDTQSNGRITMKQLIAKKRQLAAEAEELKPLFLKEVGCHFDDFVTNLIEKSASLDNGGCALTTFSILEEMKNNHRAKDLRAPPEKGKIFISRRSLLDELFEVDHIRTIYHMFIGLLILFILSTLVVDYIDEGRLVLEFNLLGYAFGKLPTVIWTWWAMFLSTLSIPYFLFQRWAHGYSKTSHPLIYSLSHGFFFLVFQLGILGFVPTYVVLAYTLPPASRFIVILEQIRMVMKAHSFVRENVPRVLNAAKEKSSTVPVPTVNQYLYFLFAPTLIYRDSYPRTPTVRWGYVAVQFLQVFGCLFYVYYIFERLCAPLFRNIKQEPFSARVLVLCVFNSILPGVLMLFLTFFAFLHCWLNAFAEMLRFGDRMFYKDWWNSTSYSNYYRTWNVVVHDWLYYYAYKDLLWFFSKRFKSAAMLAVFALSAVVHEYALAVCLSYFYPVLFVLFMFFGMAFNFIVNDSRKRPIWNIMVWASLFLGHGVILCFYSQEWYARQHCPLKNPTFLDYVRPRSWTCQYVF
# Description: (§4) It is hypothesized that PhDY-Chol is converted into PhDY-cholesteryl ester, by ACAT-1, the enzyme responsible for cholesterol esterification, as diagrammed in FIG. 4. To confirm the esterification of PhDY-Chol, we inhibited ACAT-1 with avasimibe for 24 h before addition of PhDY-Chol. […] Although LDs were still visible, the amount of PhDY-Chol signal found inside LDs reduced by 4 times (FIG. 4d). […] To determine where PhDY-Chol accumulates after ACAT-1 inhibition, we stained the cells with LysoTracker for lysosomes. […] To emphasize the physiological compatibility of our PhDY tag, we treated CHO cells with BODIPY-cholesterol.
# as §4, with “important to note that PhDY-Chol-rich structures inside the CHO cells could not be stained by filipin (FIG. 10b), implicating that it is not in the free form. We hypothesize” for “hypothesized”, “esterification (FIG. 4b).” for “esterification, as diagrammed in FIG. 4.”
# ACAT-1 inhibition was used to block cholesterol esterification either by adding a potent ACAT inhibitor, avasimibe, or by RNA interference with ACAT-1 shRNA plasmid. […]
# (§5) To quantify PhDY-rich area, we first selected one cell and used “Threshold” function to select PhDY-rich cellular regions using ImageJ. […] To quantify PhDY-rich LDs, “Image Calculator” function in ImageJ was used to multiply SRS image of PhDY-Chol by TPEF image of BODIPY. Then, after using “Threshold” function to select PhDY-rich LDs, the number of PhDY-rich LDs was counted by “Analyze Particles” function. For each group, 7 cells were analyzed, and results were shown as mean±standard deviation (SD). […]
# [6] = test system: M12 cells; assay: HPβCD treatment of PhDY-Chol-labeled M12 cells; type: cell-based, Chinese hamster; conditions: HPβCD 500 μM, 30 h
# From the text: (§6) We then treated the PhDY-Chol-labeled M12 cells with a cholesterol-mobilizing drug, hydroxypropyl-β-cyclodextrin (HPβCD). This drug is known to mediate lysosomal escape of cholesterol, and promote storage of excess cholesterol into LDs. […] These areas likely represent PhDY-cholesteryl ester stored in LDs. To confirm this possibility, we stained the cells with BODIPY for localization of LDs.
# as §6, with “drug, HPβCD^40.” for “drug, hydroxypropyl-β-cyclodextrin (HPβCD).”, “into LDs^41.” for “into LDs.”
# HPβCD was used as a drug treatment of NP-C disease. M12 cells were incubated with PhDY-Chol for 16 h as described above. […]
# as §5
compound,measurement,setting,value
"C#CCC[C@@H](C)[C@H]1CC[C@H]2[C@@H]3CC=C4C[C@@H](O)CC[C@]4(C)[C@H]3CC[C@]12C [A-Chol, alkyne cholesterol]",IC50 at 48 h,[1],16 µM
same,cytotoxicity in MTT cell-viability assay,"[2]; CHO cells, various concentrations, 48 h",toxic to the cells
same,"late apoptosis and necrosis, propidium iodide staining",[3],reduced density and extensive apoptosis
same,"late apoptosis and necrosis, propidium iodide staining",[3]; listed as alkyne-cholesterol,induces apoptosis and necrosis
"CC1=CC(C)=[N+]2C1=C(CC[C@@H](C)[C@H]1CC[C@H]3[C@@H]4CC=C5C[C@@H](O)CC[C@]5(C)[C@H]4CC[C@]13C)c1c(C)cc(C)n1[B-]2(F)F [BODIPY-cholesterol, reference compound]",photostability / photo-bleaching of signal,[4],rapid photo-bleaching
same,amount of probe incorporated into LDs after ACAT-1 inhibition,[5]; ACAT-1 inhibited vs control,did not change; also recorded: no difference between the two groups
"C[C@H](CCC#Cc1ccccc1)[C@H]1CC[C@H]2[C@@H]3CC=C4C[C@@H](O)CC[C@]4(C)[C@H]3CC[C@]12C [PhA-Chol, phenyl-alkyne cholesterol]","late apoptosis and necrosis, propidium iodide staining",[3],minimum cell death
"C[C@H](CCC#CC#Cc1ccccc1)[C@H]1CC[C@H]2[C@@H]3CC=C4C[C@@H](O)CC[C@]4(C)[C@H]3CC[C@]12C [PhDY-Chol, phenyl-diyne cholesterol]",cytotoxicity,[2]; 16 h incubation at 50 μM,did not cause cytotoxicity
same,"late apoptosis and necrosis, propidium iodide staining",[3],minimum cell death
same,photostability / photo-bleaching of signal,[4],No significant change of the SRS signal
same,reduction of probe signal found inside LDs after ACAT-1 inhibition,[5]; avasimibe 10 μM 24 h pre-treatment,4 times
same,localization after ACAT-1 inhibition (LysoTracker staining),[5]; avasimibe treatment,partially located in lysosomes
hydroxypropyl-β-cyclodextrin [HPβCD],amount of PhDY-Chol in M12 cells after treatment,[6],decreased by half
same,number of PhDY-rich LDs after treatment,[6]; BODIPY staining,increased significantly
